Data set [1] relates to HCl-induced writhing. Put plainly: HCl writhing protection (analgesic activity). The note with it: Mus musculus, sc; ED50; s.c. in CF1 mice, 30 min before i.p. 0.15% HCl; read-out: CNS Id (ED50 mg/kg) HCl Writh. Protect. Format: in vivo, CF1 mice. As to the method:
For determination of analgesic activity, the test compound was injected subcutaneously into a group of four CF1 mice. Thirty minutes later the mice were injected i.p. with 0.15% HCl, 10 ml./kg. Mice were then placed in plastic boxes and observed for fifteen minutes to record the number of animals failing to writhe.
On the technique in general: In writhing tests, fewer writhes than in controls are read as antinociception.

Data set [2] concerns oxotremorine-induced body tremor. Put plainly: Oxotremorine antagonist assay (body tremor). The following applies: Mus musculus, ip; read-out: Oxot. Antagonist Tremor (ED50). Format: in vivo, mice. The protocol:
Oxotremorine antagonist assays were performed on groups of six mice weighing 18-22 g. Each was dosed intraperitoneally with the test compound prepared in 0.25% methylcellulose and were placed in individual cages. Twenty minutes later the mice were injected subcutaneously with 0.5 mg/kg of oxotremorine dissolved in saline. Ten minutes later the mice were scored for body tremor. Doses of the compound under study began at 100 mg/kg and were decreased at a 0.5 log interval until no responders were obtained.

Data set [3] has as its target CNS cholinergic receptor. Put plainly: CNS cholinergic receptor binding, oxotremorine M ligand. The following applies: tritiated oxotremorine M; read-out: CNS Cholinergic Receptor Binding Assays K1 Oxotremorine.
The test system of data set [4] is amnesia produced by scopolamine. Put plainly: Antagonism of scopolamine-induced amnesia, passive avoidance. The following applies: i.p. test compound, 1 mg/kg s.c. scopolamine hydrobromide, mouse step through passive avoidance. It counts as in vivo. From the text:
For antagonism of amnesia produced by scopolamine a one trial, step through passive avoidance paradigm was used. In this procedure a mouse was placed on a square platform adjoining a darkened chamber. The mouse could enter the chamber through a hole above the platform. Following placement on the platform, the mouse was enclosed by a clear plexiglas cover which mildly restricted movement, limiting the animal to turning around and partial rearing. A sliding door was opened after this, exposing the entrance to the chamber. A timer was started at the same time the door was opened, in order to record latency to enter the chamber. Upon complete entry into the darkened box, the door was closed behind the mouse and a 1 mA, 2 sec, direct current shock applied to the feet of the mouse through the grid floor. The mouse was immediately removed from the chamber and returned to a 24 hr group holding cage.
Drug testing involved intraperitoneal injection of the test compound followed 15 min later by subcutaneous injection of 1 mg/kg scopolamine hydrobromide. […] The latency for each mouse to enter the chamber was recorded, with a cut-off at 180 sec.
Median group latencies to enter the chamber during both training and testing were recorded and a Wilcoxon rank sum test applied to data comparing the parallel "scopolamine only" group with all drug combination groups on testing. […]

Data set [5] has as its target CNS cholinergic receptor. The following applies: tritiated quinuclidine benzylate (QNB); read-out: CNS Cholinergic Receptor Binding Assays K1 QNB.
For data set [6] the following is noted: versus prior oxotremorine compounds; U.S. Pat. No. 3,925,411; cited from earlier work.
The test system of data set [7] is cholinergic mechanism. The following applies: extremely low doses; cited from earlier work.

Where two headings read alike, the source gives them in different places.

We go through three compounds from US5137905A, “Heterocyclic acetylenic amines having central nervous system activity” (The Upjohn Company, priority 1991, dated 1992).

In the case of `Cn1ccn(CC#CCN2CCCC2)c1=O` [Compound 36, 1,3-Dihydro-1-methyl-3-[4-(1-pyrrolidinyl)-2-butynyl]-2H-imidazol-2-one], the figures for the ED50 in data set [1] and in data set [2] were 1.3 mg/kg and over 10 mg/kg, respectively. Further, the Ki in data set [3] worked out at 0.007 µM; in data set [5], 0.51 µM. For the same compound, the “antagonism of amnesia produced by scopolamine” value in data set [4] is recorded as “the most active”.

On to `O=C1CCCN1CCC#CCN1CCCC1` [N-(5-pyrrolidino-3-pentynyl)-pyrrolidin-2-one], for which the half life entry in data set [6] is “increased half life over prior oxotremorine compounds”.

As for `O=C1CCCN1CC#CCN1CCCC1` [oxotremorine, 1-[4-(1-pyrrolidinyl-2-butynyl)-2-pyrrolidinone]], the “tremors and spasticity in laboratory animals” value in data set [7] was “induces tremors and spasticity in laboratory animals”.
